Measured values reported in patent publication US9567302B2, “Carbamate compounds and of making and using same” (Abide Therapeutics, Inc., priority 2012, dated 2017).

Assays:
Assay type in all cases: biochemical
Set-up in all cases: from tissue; host or cells: mouse brain membrane fraction
Details in all cases: 30 min preincubation at 37° C.
[1] = biological target: T1, FAAH (Mus musculus, UniProt O08914); assay: In vitro competitive activity-based protein profiling (FP-Rh), mouse FAAH
T1 sequence (O08914 1-579): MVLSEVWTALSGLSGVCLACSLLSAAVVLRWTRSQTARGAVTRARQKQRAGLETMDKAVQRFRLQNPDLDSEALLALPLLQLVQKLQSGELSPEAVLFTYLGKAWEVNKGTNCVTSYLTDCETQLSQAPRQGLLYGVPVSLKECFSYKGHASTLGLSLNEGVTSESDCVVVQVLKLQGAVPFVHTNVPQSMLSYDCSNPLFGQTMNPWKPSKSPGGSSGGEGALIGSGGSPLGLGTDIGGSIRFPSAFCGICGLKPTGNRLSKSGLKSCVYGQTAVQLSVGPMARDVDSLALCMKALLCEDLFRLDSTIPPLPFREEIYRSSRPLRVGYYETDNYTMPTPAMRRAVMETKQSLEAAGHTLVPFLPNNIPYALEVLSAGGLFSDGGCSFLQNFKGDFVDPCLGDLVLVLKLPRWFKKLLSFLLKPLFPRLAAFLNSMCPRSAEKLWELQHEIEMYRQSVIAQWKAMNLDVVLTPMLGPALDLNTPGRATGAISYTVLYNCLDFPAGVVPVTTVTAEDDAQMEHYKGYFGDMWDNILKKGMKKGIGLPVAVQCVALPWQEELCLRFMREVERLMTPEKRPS
Procedure: (§1) In Vitro Competitive Activity-Based Protein Profiling.
(§2) Proteomes (mouse brain membrane fraction or cell lysates) (50 μL, 1.0 mg/ml total protein concentration) were preincubated with varying concentrations of inhibitors at 37° C. After 30 min, FP-Rh (1.0 μL, 50 μM in DMSO) was added and the mixture was incubated for another 30 min at 37° C. Reactions were quenched with SDS loading buffer (50 μL—4×) and run on SDS-PAGE.

[2] = biological target: T2, MAGL (Mus musculus, UniProt O35678); assay: In vitro competitive activity-based protein profiling (FP-Rh), mouse MAGL
T2 sequence (O35678 1-303): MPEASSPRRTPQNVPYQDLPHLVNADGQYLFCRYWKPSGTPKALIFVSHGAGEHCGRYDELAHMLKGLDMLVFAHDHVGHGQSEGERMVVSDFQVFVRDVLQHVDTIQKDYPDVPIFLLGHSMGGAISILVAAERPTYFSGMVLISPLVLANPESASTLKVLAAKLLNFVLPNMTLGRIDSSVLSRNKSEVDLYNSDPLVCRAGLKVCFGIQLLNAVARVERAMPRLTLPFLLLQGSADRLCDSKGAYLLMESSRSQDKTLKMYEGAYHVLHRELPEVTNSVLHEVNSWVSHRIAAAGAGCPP
Procedure: as §1, §2

[3] = biological target: T3, ABHD6 (Mus musculus, UniProt Q8R2Y0); assay: In vitro competitive activity-based protein profiling (FP-Rh), mouse ABHD6
T3 sequence (Q8R2Y0 1-336): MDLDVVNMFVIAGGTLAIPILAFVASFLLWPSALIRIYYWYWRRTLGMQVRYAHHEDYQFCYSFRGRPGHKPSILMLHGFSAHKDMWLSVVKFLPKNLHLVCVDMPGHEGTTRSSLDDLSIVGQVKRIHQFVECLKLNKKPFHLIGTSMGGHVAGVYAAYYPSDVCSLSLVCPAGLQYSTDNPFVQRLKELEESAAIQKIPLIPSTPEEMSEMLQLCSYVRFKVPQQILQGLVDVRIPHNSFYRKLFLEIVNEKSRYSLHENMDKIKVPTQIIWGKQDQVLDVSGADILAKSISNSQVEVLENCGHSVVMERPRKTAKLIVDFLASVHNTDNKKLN
Procedure: as §1, §2

| SMILES | IC50 ([1]; Table 1, mouse proteome) [nM] | IC50 ([2]; Table 1, mouse proteome) [nM] | IC50 ([3]; Table 1, mouse proteome) [nM] | IC50 ([1]; Table 2, mouse proteome) [nM] | IC50 ([2]; Table 2, mouse proteome) [nM] | IC50 ([3]; Table 2, mouse proteome) [nM] |
| --- | --- | --- | --- | --- | --- | --- |
| O=C(ON1C(=O)CCC1=O)N1CCCC1 [Example 29, 2,5-Dioxopyrrolidin-1-yl pyrrolidine-1-carboxylate] | > 10000 | > 10000 | > 10000 | – | – | – |
| O=C(ON1C(=O)CCC1=O)N1CCC1 [Example 30, 2,5-Dioxopyrrolidin-1-yl azetidine-1-carboxylate] | > 10000 | > 10000 | > 10000 | – | – | – |
| O=C(ON1C(=O)c2ccccc2C1=O)N1CCN(C(c2ccc(Cl)cc2)c2ccc(Cl)cc2)CC1 [Example 33, 1,3-Dioxo-2,3-dihydro-1H-isoindol-2-yl 4-[bis(4-chlorophenyl)methyl]piperazine-1-carboxylate] | > 10000 | > 10000 | 100 to 1000 | – | – | – |
| O=C(ON1C(=O)CCC1=O)N1CCOCC1 [Example 38, 2,5-Dioxopyrrolidin-1-yl morpholine-4-carboxylate] | > 10000 | > 10000 | > 10000 | – | – | – |
| CC1(C)CC(=O)N(OC(=O)N2CCN(C(c3ccc(Cl)cc3)c3ccc(Cl)cc3)CC2)C1=O [Example 42, 3,3-Dimethyl-2,5-dioxopyrrolidin-1-yl 4-(bis(4-chlorophenyl)methyl)piperazine-1-carboxylate] | > 10000 | 1000 to 10000 | 1000 to 10000 | – | – | – |
| CCCC1CC(=O)N(OC(=O)N2CCN(C(c3ccc(Cl)cc3)c3ccc(Cl)cc3)CC2)C1=O (stereo not drawn) [Example 43, 2,5-Dioxo-3-propylpyrrolidin-1-yl 4-(bis(4-chlorophenyl)methyl)piperazine-1-carboxylate] | > 10000 | 100 to 1000 | 100 to 1000 | – | – | – |
| O=C(ON1C(=O)CC(c2ccccc2)C1=O)N1CCN(C(c2ccc(Cl)cc2)c2ccc(Cl)cc2)CC1 (stereo not drawn) [Example 44, 2,5-Dioxo-3-phenylpyrrolidin-1-yl 4-(bis(4-chlorophenyl)methyl)piperazine-1-carboxylate] | > 10000 | 1000 to 10000 | 1000 to 10000 | – | – | – |
| O=C(ON1C(=O)C2CCCCC2C1=O)N1CCN(C(c2ccc(Cl)cc2)c2ccc(Cl)cc2)CC1 (stereo not drawn) [Example 45, 1,3-Dioxohexahydro-1H-isoindol-2(3H)-yl 4-(bis(4-chlorophenyl)methyl)piperazine-1-carboxylate] | > 10000 | 1000 to 10000 | 100 to 1000 | – | – | – |
| CC(C)C1NC(=O)N(OC(=O)N2CCN(C(c3ccc(Cl)cc3)c3ccc(Cl)cc3)CC2)C1=O (stereo not drawn) [Example 47, 4-Isopropyl-2,5-dioxoimidazolidin-1-yl 4-(bis(4-chlorophenyl)methyl)piperazine-1-carboxylate] | > 10000 | 100 to 1000 | 100 to 1000 | – | – | – |
| COc1ccc(N2CCN(C(=O)ON3C(=O)CC(C)(C)C3=O)CC2)cc1 [Example 52, 3,3-Dimethyl-2,5-dioxopyrrolidin-1-yl 4-(4-methoxyphenyl)piperazine-1-carboxylate] | > 10000 | > 10000 | 100 to 1000 | – | – | – |
| COc1ccc(N2CCN(C(=O)ON3C(=O)C4CCCCC4C3=O)CC2)cc1 (stereo not drawn) [Example 53, 1,3-Dioxohexahydro-1H-isoindol-2(3H)-yl 4-(4-methoxyphenyl)piperazine-1-carboxylate] | > 10000 | > 10000 | < 100 | – | – | – |
| CN1CC(=O)N(OC(=O)N2CCN(C(c3ccc(Cl)cc3)c3ccc(Cl)cc3)CC2)C1=O [Example 56, 3-Methyl-2,5-dioxoimidazolidin-1-yl 4-(bis(4-chlorophenyl)methyl)piperazine-1-carboxylate] | > 10000 | < 100 | 100 to 1000 | – | – | – |
| CN(C)C(=O)ON1C(=O)CCC1=O [Example 57, 2,5-Dioxopyrrolidin-1-yl dimethylcarbamate] | > 10000 | > 10000 | > 10000 | – | – | – |
| CN(C)C(=O)ON1C(=O)CC(c2ccccc2)C1=O (stereo not drawn) [Example 59, 2,5-Dioxo-3-phenylpyrrolidin-1-yl dimethylcarbamate] | > 10000 | > 10000 | > 10000 | – | – | – |
| O=C(ON1C(=O)CC(c2ccccc2)C1=O)N1CCCCC1 (stereo not drawn) [Example 60, 2,5-Dioxo-3-phenylpyrrolidin-1-yl piperidine-1-carboxylate] | > 10000 | > 10000 | > 10000 | – | – | – |
| O=C(ON1C(=O)CNC1=O)N1CCCCC1 [Example 61, 2,5-Dioxoimidazolidin-1-yl piperidine-1-carboxylate] | > 10000 | > 10000 | > 10000 | – | – | – |
| O=C(ON1C(=O)CCC1=O)N1CCN(Cc2ccc(N3CCOCC3)cc2F)CC1 [Example 62, 2,5-Dioxopyrrolidin-1-yl 4-(2-fluoro-4-morpholinobenzyl)-piperazine-1-carboxylate] | – | – | – | > 10000 | 1000 to 10000 | 1000 to 10000 |
| O=C(ON1C(=O)CCC1=O)N1CCN(Cc2ccc(Br)cc2N2CCCCC2)CC1 [Example 65, 2,5-Dioxopyrrolidin-1-yl 4-(4-bromo-2-(piperidin-1-yl)benzyl)piperazine-1-carboxylate] | – | – | – | 1000 to 10000 | < 100 | 100 to 1000 |

Second part, the molecule after the results:

| IC50 ([1]; Table 1, mouse proteome) [nM] | IC50 ([2]; Table 1, mouse proteome) [nM] | IC50 ([3]; Table 1, mouse proteome) [nM] | IC50 ([1]; Table 2, mouse proteome) [nM] | IC50 ([2]; Table 2, mouse proteome) [nM] | IC50 ([3]; Table 2, mouse proteome) [nM] | SMILES |
| --- | --- | --- | --- | --- | --- | --- |
| 1000 to 10000 | > 10000 | 1000 to 10000 | – | – | – | C#CCCCCNC(=O)ON1C(=O)CCC1=O [Example 28, 2,5-Dioxopyrrolidin-1-yl N-(hex-5-yn-1-yl)carbamate] |
| 1000 to 10000 | 1000 to 10000 | 1000 to 10000 | – | – | – | CCCCCCCC/C=C\CCCCCCCCNC(=O)ON1C(=O)CCC1=O [Example 31, 2,5-Dioxopyrrolidin-1-yl N-[(9Z)-octadec-9-en-1-yl]carbamate] |
| < 100 | 1000 to 10000 | < 100 | – | – | – | O=C(ON1C(=O)c2ccccc2C1=O)N1CCC(CCc2ccc(Cl)cc2)CC1 [Example 32, 1,3-Dioxo-2,3-dihydro-1H-isoindol-2-yl 4-[2-(4-chlorophenyl)ethyl]piperidine-1-carboxylate] |
| 100 to 1000 | > 10000 | < 100 | – | – | – | COc1ccc(N2CCN(C(=O)ON3C(=O)c4ccccc4C3=O)CC2)cc1 [Example 34, 1,3-Dioxo-2,3-dihydro-1H-isoindol-2-yl 4-(4-methoxyphenyl)piperazine-1-carboxylate] |
| < 100 | < 100 | < 100 | – | – | – | O=C(ON1C(=O)CNC1=O)N1CCC(CCc2ccc(Cl)cc2)CC1 [Example 48, 2,5-Dioxoimidazolidin-1-yl 4-(4-chlorophenethyl)piperidine-1-carboxylate] |
| 100 to 1000 | < 100 | < 100 | – | – | – | CN1CC(=O)N(OC(=O)N2CCC(CCc3ccc(Cl)cc3)CC2)C1=O [Example 49, 3-Methyl-2,5-dioxoimidazolidin-1-yl 4-(4-chlorophenethyl)piperidine-1-carboxylate] |
| < 100 | 100 to 1000 | < 100 | – | – | – | O=C(ON1C(=O)CN(Cc2ccccc2)C1=O)N1CCC(CCc2ccc(Cl)cc2)CC1 [Example 50, 3-Benzyl-2,5-dioxoimidazolidin-1-yl 4-(4-chlorophenethyl)piperidine-1-carboxylate] |
| 1000 to 10000 | 1000 to 10000 | < 100 | – | – | – | COc1ccc(N2CCN(C(=O)ON3C(=O)CC(c4ccccc4)C3=O)CC2)cc1 (stereo not drawn) [Example 54, 2,5-Dioxo-3-phenylpyrrolidin-1-yl 4-(4-methoxyphenyl)piperazine-1-carboxylate] |
| 1000 to 10000 | > 10000 | < 100 | – | – | – | COc1ccc(N2CCN(C(=O)ON3C(=O)NC(C(C)C)C3=O)CC2)cc1 (stereo not drawn) [Example 55, 4-Isopropyl-2,5-dioxoimidazolidin-1-yl 4-(4-methoxyphenyl)piperazine-1-carboxylate] |
